Laboratory results as given in US20260240159A1, “HERBICIDAL COMPOSITIONS” (SYNGENTA CROP PROTECTION AG, priority 2023, published 2026).

Tests used:
Test in all cases: Post-emergence glasshouse herbicidal efficacy, percentage damage to plant
Format in all cases: in vivo
Settings in all cases: after 14 days
Lolium perenne (LOLPE) = tested on: Lolium perenne (LOLPE)
Excerpt: (§1) When active ingredients are combined, the activity to be expected (E) for any given active ingredient combination obeys the so-called Colby Formula and can be calculated as follows (Colby, S. R., Calculating synergistic and antagonistic responses of herbicide combination, Weeds, Vol. 15, pages 20-22; 1967): • ppm=milligrams of active ingredient (a.i.) per liter • X=% action by first active ingredient using p ppm of the active ingredient • Y=% action by second active ingredient sing q ppm of the active ingredient.
(§2) According to Colby, the expected action of active ingredients A+B using p+q ppm of active ingredient is represented by the following formula: […]
(§3) If the action actually observed (O) is greater than the expected action E then the action of the combination is super-additive, i.e. there is a synergistic effect. In mathematical terms, synergism corresponds to a positive value for the difference of (O-E). In the case of purely complementary addition of activities (expected activity), said difference (O-E) is zero. A negative value of said difference (O-E) signals a loss of activity compared to the expected activity.
(§4) Biological Efficacy Tests Seeds of a variety of test species are sown in standard soil in pots (Ipomoea hederacea (IPHOE), Alopecurus myosuroides (ALOMY), Lolium perenne (LOLPE), Echinochloa crus-galli (ECHCG), and Setaria faberi (SETFA)), and cultivated under controlled conditions in a glasshouse (at 24/16° C., day/night; 14 hours light; 65% humidity), the plants are sprayed with an aqueous spray solution derived from the dissolution of the test compound or composition in acetone and IF50 (11.12% Emulsogen EL360 TM+44.44% N-methylpyrrolidone+44.44% Dowanol DPM glycol ether) which was then diluted to the required concentration using 0.2% Genapol X080 (CAS No. 9043-30-5) in water as the diluent. Test compounds or compositions are applied at the rates stated. The test plants are then grown in a glasshouse under controlled conditions in a glasshouse (at 24/16° C., day/night; 14 hours light; 65% humidity) and watered twice daily. After 14 days, the test is evaluated for the percentage damage caused to the plant (100=total damage to plant; 0=no damage to plant), and the result are shown below in tables B1 to B5.

[1] = tested on: Alopecurus myosuroides (ALOMY)
Excerpt: as §1, §2, §3, §4

[2] = tested on: Ipomoea hederacea (IPOHE)
Excerpt: as §1, §2, §3, §4

[3] = tested on: Echinochloa crus-galli (ECHCG)
Excerpt: as §1, §2, §3, §4

Setaria faberi (SETFA) = tested on: Setaria faberi (SETFA)
Excerpt: as §1, §2, §3, §4

With `CCOC(=O)C1(C)CC(c2cc(-n3c(=O)cc(C(F)(F)F)n(C)c3=O)c(F)cc2Cl)=NO1` (centres unmarked) [(Ia)] the inhibition at 1.875 g/ha (Lolium perenne (LOLPE); Lolium perenne, 336 h, (Ia) 1.875 g/Ha alone, read-out: Observed Activity (%)) was 0%, the inhibition at 3.75 g/ha (Lolium perenne (LOLPE); Lolium perenne, 336 h, (Ia) 3.75 g/Ha alone, read-out: Observed Activity (%)) was 12.5% and the inhibition at 7.5 g/ha (Lolium perenne (LOLPE); Lolium perenne, 336 h, (Ia) 7.5 g/Ha alone, read-out: Observed Activity (%)) was 42.5%. For the same compound, the inhibition at 15 g/ha (Lolium perenne (LOLPE); Lolium perenne, 336 h, (Ia) 15 g/Ha alone, read-out: Observed Activity (%)) was 50%, the inhibition at 1.875 g/ha ([1]; Alopecurus myosuroides, 336 h, (Ia) 1.875 g/Ha alone, read-out: Observed Activity (%)) was 10% and the inhibition at 3.75 g/ha ([1]; Alopecurus myosuroides, 336 h, (Ia) 3.75 g/Ha alone, read-out: Observed Activity (%)) was 27.5%. It also gave an inhibition at 7.5 g/ha ([1]; Alopecurus myosuroides, 336 h, (Ia) 7.5 g/Ha alone, read-out: Observed Activity (%)) of 42.5%, an inhibition at 15 g/ha ([1]; Alopecurus myosuroides, 336 h, (Ia) 15 g/Ha alone, read-out: Observed Activity (%)) of 60% and an inhibition at 0.9375 g/ha ([2]; Ipomoea hederacea, 336 h, (Ia) 0.9375 g/Ha alone, read-out: Observed Activity (%)) of 84.8%. For the same compound, the inhibition at 1.875 g/ha ([3]; Echinochloa crus-galli, 336 h, (Ia) 1.875 g/Ha alone, read-out: Observed Activity (%)) was 15%, the inhibition at 3.75 g/ha ([3]; Echinochloa crus-galli, 336 h, (Ia) 3.75 g/Ha alone, read-out: Observed Activity (%)) was 37.5% and the inhibition at 7.5 g/ha ([3]; Echinochloa crus-galli, 336 h, (Ia) 7.5 g/Ha alone, read-out: Observed Activity (%)) was 99%. It also gave an inhibition at 1.875 g/ha (Setaria faberi (SETFA); Setaria faberi, 336 h, (Ia) 1.875 g/Ha alone, read-out: Observed Activity (%)) of 55% and an inhibition at 3.75 g/ha (Setaria faberi (SETFA); Setaria faberi, 336 h, (Ia) 3.75 g/Ha alone, read-out: Observed Activity (%)) of 67.5%.

`CCc1cccc(C)c1N(C(=O)CCl)[C@@H](C)COC` [S-metolachlor] was tested, and the “Observed Activity (%)” value (Lolium perenne (LOLPE); S-metolachlor 18.75 g/Ha alone) was 45.0%, the “Observed Activity (%)” value (Lolium perenne (LOLPE); S-metolachlor 37.5 g/Ha alone) was 60.0% and the “Observed Activity (%)” value (Lolium perenne (LOLPE); S-metolachlor 75 g/Ha alone) was 70.0%. The “Observed Activity (%)” value (Lolium perenne (LOLPE); S-metolachlor 150 g/Ha alone) was 67.5%, the “Observed Activity (%)” value (Lolium perenne (LOLPE); S-metolachlor 300 g/Ha alone) was 80.0% and the “Observed Activity (%)” value ([1]; S-metolachlor 18.75 g/Ha alone) was 0.0%. For the same compound, the “Observed Activity (%)” value ([1]; S-metolachlor 37.5 g/Ha alone) was 10.0%, the “Observed Activity (%)” value ([1]; S-metolachlor 75 g/Ha alone) was 0.0% and the “Observed Activity (%)” value ([1]; S-metolachlor 150 g/Ha alone) was 27.5%. For the same compound, the “Observed Activity (%)” value ([1]; S-metolachlor 300 g/Ha alone) was 45.0%, the “Observed Activity (%)” value ([2]; S-metolachlor 62.5 g/Ha alone) was 5.0% and the “Observed Activity (%)” value ([2]; S-metolachlor 125 g/Ha alone) was 7.5%. The “Observed Activity (%)” value ([3]; S-metolachlor 18.75 g/Ha alone) was 75.0%, the “Observed Activity (%)” value ([3]; S-metolachlor 37.5 g/Ha alone) was 85.0% and the “Observed Activity (%)” value ([3]; S-metolachlor 75 g/Ha alone) was 85.0%. For the same compound, the “Observed Activity (%)” value (Setaria faberi (SETFA); S-metolachlor 37.5 g/Ha alone) was 72.5%, the “Observed Activity (%)” value (Setaria faberi (SETFA); S-metolachlor 75 g/Ha alone) was 82.5% and the “Observed Activity (%)” value (Setaria faberi (SETFA); S-metolachlor 150 g/Ha alone) was 85.0%.
